Experiments:
Lanosterol synthase = molecular target: T1, Lanosterol synthase (Homo sapiens, UniProt P48449); test: Inhibition of OSC
T1 sequence (P48449 whole entry): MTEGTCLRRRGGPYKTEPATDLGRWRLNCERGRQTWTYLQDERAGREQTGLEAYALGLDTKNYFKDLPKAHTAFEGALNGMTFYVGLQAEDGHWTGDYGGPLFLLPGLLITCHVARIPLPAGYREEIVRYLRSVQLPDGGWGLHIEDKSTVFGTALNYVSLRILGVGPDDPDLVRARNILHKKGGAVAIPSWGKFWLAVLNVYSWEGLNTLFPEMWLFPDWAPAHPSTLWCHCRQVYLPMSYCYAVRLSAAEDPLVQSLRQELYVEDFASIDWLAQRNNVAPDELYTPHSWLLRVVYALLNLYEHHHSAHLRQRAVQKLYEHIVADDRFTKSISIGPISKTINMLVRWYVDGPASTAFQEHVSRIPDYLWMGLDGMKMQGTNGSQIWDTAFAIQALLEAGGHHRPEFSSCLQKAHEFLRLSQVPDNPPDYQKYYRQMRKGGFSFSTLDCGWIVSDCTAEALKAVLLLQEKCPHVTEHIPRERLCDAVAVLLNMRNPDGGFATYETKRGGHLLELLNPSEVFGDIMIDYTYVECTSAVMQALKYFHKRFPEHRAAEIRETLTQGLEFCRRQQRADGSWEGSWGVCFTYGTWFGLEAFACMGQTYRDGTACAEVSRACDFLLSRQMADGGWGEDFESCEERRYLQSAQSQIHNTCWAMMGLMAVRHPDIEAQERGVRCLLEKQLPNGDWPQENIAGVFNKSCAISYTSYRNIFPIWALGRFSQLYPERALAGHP

[1] = molecular target: T2, Lanosterol synthase (Homo sapiens) (UniProt P48449); test: Inhibition of OSC at 20 uM
T2 sequence (whole entry): T1 sequence (P48449 whole entry)

| SMILES | IC50 (Lanosterol synthase) [µM] | inhibition [1] [%] |
| --- | --- | --- |
| CCCCCCCCCCCC[N+](C)(C)[O-] | 2.15 | 84 |
| COc1ccc(-n2c(C)cc(C(=O)NCc3ccc(CN(C)C)cc3)c2C)cc1 | 35.4 |  |
| CN(C)Cc1ccc(CNCc2cnn(-c3ccccc3)n2)cc1 | 1.41 | 128 |

The remaining compounds from weak to strong by IC50 (Lanosterol synthase), led by results:

| IC50 (Lanosterol synthase) [µM] | inhibition [1] [%] | SMILES |
| --- | --- | --- |
| 58.8 |  | COc1ccc(-n2c(C)cc(CNC(=O)c3ccc(CN(C)C)cc3)c2C)cc1 |
| 12.7 | 86 | COc1ccc(-n2c(C)cc(CNCc3ccc(CN(C)C)cc3)c2C)cc1 |
